Laboratory results: patent US9999622B2, “Pyrazolothiazole compound and medicine comprising same” (NIPPON SHINYAKU CO., LTD., priority 2014, dated 2018)

Columns and labels:
Format in all cases: biochemical
JAK3 = target: T1, JAK3 (Homo sapiens, UniProt P52333); test: JAK tyrosine kinase inhibitory activity in the presence of 1 mM ATP (ELISA), JAK3
T1 construct: purchased Carna Biosciences, Inc
T1 sequence (P52333 1-1124): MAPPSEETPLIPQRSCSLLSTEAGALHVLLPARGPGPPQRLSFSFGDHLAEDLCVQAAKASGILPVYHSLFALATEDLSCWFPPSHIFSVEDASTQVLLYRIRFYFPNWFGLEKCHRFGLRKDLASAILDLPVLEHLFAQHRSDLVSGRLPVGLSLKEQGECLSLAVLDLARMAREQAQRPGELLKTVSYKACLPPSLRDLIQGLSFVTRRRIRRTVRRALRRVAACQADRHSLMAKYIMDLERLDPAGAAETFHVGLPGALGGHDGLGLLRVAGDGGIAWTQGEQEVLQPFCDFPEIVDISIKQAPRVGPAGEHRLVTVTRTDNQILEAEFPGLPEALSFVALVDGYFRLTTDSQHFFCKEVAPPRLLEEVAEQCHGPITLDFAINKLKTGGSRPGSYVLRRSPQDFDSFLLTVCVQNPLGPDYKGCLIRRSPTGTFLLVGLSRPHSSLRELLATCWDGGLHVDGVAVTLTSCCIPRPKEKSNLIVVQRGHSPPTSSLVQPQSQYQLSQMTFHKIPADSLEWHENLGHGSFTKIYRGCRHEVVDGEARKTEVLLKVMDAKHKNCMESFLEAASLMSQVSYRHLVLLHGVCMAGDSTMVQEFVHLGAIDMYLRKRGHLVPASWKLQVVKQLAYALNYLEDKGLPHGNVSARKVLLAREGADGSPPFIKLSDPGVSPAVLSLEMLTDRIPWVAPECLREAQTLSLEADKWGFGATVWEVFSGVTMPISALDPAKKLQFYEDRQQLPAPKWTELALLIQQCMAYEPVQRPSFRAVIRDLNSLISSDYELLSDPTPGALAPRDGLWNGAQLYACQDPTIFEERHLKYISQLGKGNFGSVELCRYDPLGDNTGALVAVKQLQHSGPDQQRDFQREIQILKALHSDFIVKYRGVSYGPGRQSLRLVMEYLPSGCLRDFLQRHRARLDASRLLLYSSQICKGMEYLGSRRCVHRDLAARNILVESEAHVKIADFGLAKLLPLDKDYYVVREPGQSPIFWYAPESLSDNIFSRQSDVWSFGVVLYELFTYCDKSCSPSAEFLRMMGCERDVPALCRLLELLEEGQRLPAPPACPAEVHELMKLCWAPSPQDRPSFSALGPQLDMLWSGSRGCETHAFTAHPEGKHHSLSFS
Method: (§1) 1. Preparation of Test Compound
(§2) The test compound was dissolved in dimethyl sulfoxide (DMSO) to 10 mM and further diluted with DMSO to the concentrations of 1000, 100, 10, 1, 0.1 and 0.01 μM, respectively. For JAK1, these solutions of the test compound at the six concentrations 10 mM, 1000 μM, 100 μM, 10 μM, 1 μM and 0.1 μM were used. For JAK2 and JAK3, these solutions of the test compound at the six concentrations 1000 μM, 100 μM, 10 μM, 1 μM, 0.1 μM and 0.01 μM were used. The test compound solutions were diluted further to 20-fold with an assay buffer to obtain a sample solution. 15 mM Tris-HCl (pH7.5), 0.01 (v/v) % Tween-20 and 1 mM dithiothreitol were used as an assay buffer. DMSO was diluted to 20-fold with the assay buffer and was used as a negative control.
(§3) 2. JAK Tyrosine Kinase Inhibitory Activity in the Presence of 1 mM Atp
(§4) The activity was determined by ELISA method. Each of the sample solutions was added to a streptavidine coated 96-well plate (DELFIA Strip Plate 8×12 well, PerkinElmer) at 10 μL/well (n=2). […] Finally, JAK tyrosine kinase (Carna Biosciences, Inc.), which was previously diluted with the assay buffer to 7.5 nM for JAK1 and 0.75 nM for JAK2 and JAK3, was added to the plate at 20 μL/well, and the plate was incubated at 30° C. for 1 h. The plate was washed four times with buffer (50 mM Tris-HCl (pH 7.5), 150 mM NaCl, 0.02 (v/v) % Tween-20). A blocking buffer (0.1% Bovine Serum Albumin, 50 mM Tris-HCl (pH 7.5), 150 mM NaCl, 0.02 (v/v) % Tween-20) was added to the plate at 150 μL/well and the plate was blocked at 30° C. for 1 h. The blocking buffer was removed, and a horse radish peroxidase-labeled anti-phosphorylated tyrosine antibody (BD Biosciences, Inc.) (diluted to 10000-fold with the blocking buffer) was added to the plate at 100 μL/well, and the plate was incubated at 30° C. for 30 min. The plate was washed with the washing buffer four times, and 3,3′,5,5′-tetramethylbenizidine solution (Nacalai Tesque) was added to the plate at 100 μL/well to develop the color for 10 minutes. To the plate was added 0.1 M sulfuric acid at 100 μL/well to stop the reaction. The absorbance at 450 nm was measured using a microplate reader (BIO-RAD).
(§5) 3. Analysis of the Results

JAK1 = target: T2, JAK1 (Homo sapiens, UniProt P23458); test: JAK tyrosine kinase inhibitory activity in the presence of 1 mM ATP (ELISA), JAK1
T2 construct: purchased Carna Biosciences, Inc
T2 sequence (P23458 whole entry): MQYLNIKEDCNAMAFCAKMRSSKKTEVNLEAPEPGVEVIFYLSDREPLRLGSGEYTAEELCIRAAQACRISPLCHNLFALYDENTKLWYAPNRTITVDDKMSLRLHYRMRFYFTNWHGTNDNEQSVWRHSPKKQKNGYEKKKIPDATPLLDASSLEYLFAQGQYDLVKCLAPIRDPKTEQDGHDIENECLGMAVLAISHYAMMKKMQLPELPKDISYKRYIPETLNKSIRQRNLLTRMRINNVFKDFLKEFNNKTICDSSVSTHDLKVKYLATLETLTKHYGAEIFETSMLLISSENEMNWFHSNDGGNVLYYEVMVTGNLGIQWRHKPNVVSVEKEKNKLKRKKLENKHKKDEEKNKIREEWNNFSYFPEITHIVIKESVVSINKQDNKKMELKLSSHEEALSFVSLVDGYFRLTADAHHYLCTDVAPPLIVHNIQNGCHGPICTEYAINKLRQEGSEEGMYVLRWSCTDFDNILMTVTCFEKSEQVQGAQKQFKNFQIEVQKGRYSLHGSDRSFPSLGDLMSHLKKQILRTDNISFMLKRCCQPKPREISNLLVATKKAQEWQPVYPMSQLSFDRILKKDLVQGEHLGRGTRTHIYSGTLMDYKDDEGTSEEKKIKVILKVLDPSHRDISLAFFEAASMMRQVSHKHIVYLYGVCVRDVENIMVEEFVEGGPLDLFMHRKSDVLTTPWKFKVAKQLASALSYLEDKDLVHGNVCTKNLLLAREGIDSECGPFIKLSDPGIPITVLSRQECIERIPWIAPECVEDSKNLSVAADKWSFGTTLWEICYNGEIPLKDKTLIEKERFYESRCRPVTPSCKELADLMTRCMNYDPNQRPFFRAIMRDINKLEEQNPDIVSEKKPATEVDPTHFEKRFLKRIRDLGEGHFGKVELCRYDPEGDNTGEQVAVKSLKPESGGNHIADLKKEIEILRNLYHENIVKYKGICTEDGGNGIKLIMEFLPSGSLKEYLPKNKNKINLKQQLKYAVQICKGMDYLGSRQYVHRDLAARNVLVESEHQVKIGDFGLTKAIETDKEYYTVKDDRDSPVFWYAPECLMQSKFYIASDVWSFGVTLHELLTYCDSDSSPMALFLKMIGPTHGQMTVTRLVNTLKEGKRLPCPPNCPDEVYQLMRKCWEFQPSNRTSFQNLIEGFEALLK
Method: as §1, §2, §3, §4, §5

JAK2 = target: T3, JAK2 (Homo sapiens, UniProt O60674); test: JAK tyrosine kinase inhibitory activity in the presence of 1 mM ATP (ELISA), JAK2
T3 construct: purchased Carna Biosciences, Inc
T3 sequence (O60674 whole entry): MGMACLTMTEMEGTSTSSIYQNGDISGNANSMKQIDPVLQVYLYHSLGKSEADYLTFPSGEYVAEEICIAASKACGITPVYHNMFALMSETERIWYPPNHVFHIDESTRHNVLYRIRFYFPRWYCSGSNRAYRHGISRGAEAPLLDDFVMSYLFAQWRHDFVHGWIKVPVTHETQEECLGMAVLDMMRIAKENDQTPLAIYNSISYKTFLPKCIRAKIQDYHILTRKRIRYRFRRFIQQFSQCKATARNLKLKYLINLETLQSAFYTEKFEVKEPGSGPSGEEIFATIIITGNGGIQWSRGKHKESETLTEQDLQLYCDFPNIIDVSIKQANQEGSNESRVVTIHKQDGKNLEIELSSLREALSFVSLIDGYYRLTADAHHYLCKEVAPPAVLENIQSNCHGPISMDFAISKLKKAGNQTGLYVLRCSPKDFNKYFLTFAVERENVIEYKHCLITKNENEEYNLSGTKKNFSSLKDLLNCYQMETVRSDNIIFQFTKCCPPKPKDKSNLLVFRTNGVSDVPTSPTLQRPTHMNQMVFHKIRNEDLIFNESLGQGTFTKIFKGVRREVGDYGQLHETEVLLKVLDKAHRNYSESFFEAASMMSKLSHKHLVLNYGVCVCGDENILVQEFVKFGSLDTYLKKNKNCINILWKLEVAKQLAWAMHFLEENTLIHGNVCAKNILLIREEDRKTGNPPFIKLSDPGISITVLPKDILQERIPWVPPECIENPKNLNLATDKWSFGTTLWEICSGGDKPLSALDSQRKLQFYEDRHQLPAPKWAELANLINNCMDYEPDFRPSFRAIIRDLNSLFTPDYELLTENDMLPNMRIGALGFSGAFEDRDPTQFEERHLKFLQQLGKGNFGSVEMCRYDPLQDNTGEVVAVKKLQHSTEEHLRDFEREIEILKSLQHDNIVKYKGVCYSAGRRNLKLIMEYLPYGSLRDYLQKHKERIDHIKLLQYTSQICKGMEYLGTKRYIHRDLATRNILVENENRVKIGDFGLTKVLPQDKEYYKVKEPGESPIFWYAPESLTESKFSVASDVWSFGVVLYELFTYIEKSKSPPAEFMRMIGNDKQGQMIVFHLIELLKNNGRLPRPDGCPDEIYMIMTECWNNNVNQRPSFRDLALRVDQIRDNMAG
Method: as §1, §2, §3, §4, §5

Row | SMILES | IC50 (JAK3) | IC50 (JAK1) | IC50 (JAK2)
1 | C[C@@H](Nc1cc(C(=O)N2CCC(NC(=O)C3CC3)CC2)nc(-c2cnn3ccsc23)n1)C1CC1 [Example 46, N-(1-{[6-{[(1R)-1-Cyclopropylethyl]amino}-2-(pyrazolo[5,1-b][1,3]thiazol-7-yl)pyrimidin-4-yl]carbonyl}piperidin-4-yl)cyclopropanecarboxamide] | 7200 nM | 170 nM | 1600 nM
2 | CC(C)(CO)Nc1cc(C(=O)N2CCC(NC(=O)C3CC3)CC2)nc(-c2cnn3ccsc23)n1 [Example 48, N-[1-({6-[(1-Hydroxy-2-methylpropan-2-yl)amino]-2-(pyrazolo[5,1-b][1,3]thiazol-7-yl)pyrimidin-4-yl}carbonyl)piperidin-4-yl]cyclopropanecarboxamide] | > 10000 nM | 150 nM | > 10000 nM
3 | C[C@H](Nc1cc(C(=O)N2CCC(Nc3nccs3)CC2)nc(-c2cnn3ccsc23)n1)C1CC1 [Example 50, [6-{[(1S)-1-Cyclopropylethyl]amino}-2-(pyrazolo[5,1-b][1,3]thiazol-7-yl)pyrimidin-4-yl][4-(1,3-thiazol-2-ylamino)piperidin-1-yl]methanone] | 2500 nM | 150 nM | 2000 nM
4 | COc1ccc([C@@H](C)Nc2cc(C(=O)N3CCC(NC(=O)C4CC4)CC3)nc(-c3cnn4ccsc34)n2)cc1 [Example 52, N-(1-{[6-{[(1R)-1-(4-Methoxyphenyl)ethyl]amino}-2-(pyrazolo[5,1-b][1,3]thiazol-7-yl)pyrimidin-4-yl]carbonyl}piperidin-4-yl)cyclopropanecarboxamide] | > 10000 nM | 180 nM | 9300 nM
5 | CC(C)(C)[C@@H](CO)Nc1cc(C(=O)N2CCC(NC(=O)C3CC3)CC2)nc(-c2cnn3ccsc23)n1 [Example 55, N-(1-{[6-{[(2S)-1-Hydroxy-3,3-dimethylbutan-2-yl]amino}-2-(pyrazolo[5,1-b][1,3]thiazol-7-yl)pyrimidin-4-yl]carbonyl}piperidin-4-yl)cyclopropanecarboxamide] | > 10000 nM | 140 nM | > 10000 nM
6 | COc1ccc([C@@H](C)Nc2cc(C(=O)N3CCC(O)CC3)nc(-c3cnn4ccsc34)n2)cc1 [Example 56, (4-Hydroxypiperidin-1-yl) [6-{[(1R)-1-(4-methoxyphenyl)ethyl]amino}-2-(pyrazolo[5,1-b][1,3]thiazol-7-yl)pyrimidin-4-yl]methanone] | > 10000 nM | 940 nM | 7300 nM
7 | COC(=O)NC1CCN(C(=O)c2cc(NC(C)(C)C)nc(-c3cnn4ccsc34)n2)CC1 [Example 59, Methyl (1-{[6-(tert-butylamino)-2-(pyrazolo[5,1-b][1,3]thiazol-7-yl)pyrimidin-4-yl]carbonyl}piperidin-4-yl)carbamate] | 5600 nM | 140 nM | 3900 nM
8 | CC(C)OC(=O)NC1CCN(C(=O)c2cc(NC(C)(C)C)nc(-c3cnn4ccsc34)n2)CC1 [Example 60, Propan-2-yl (1-{[6-(tert-butylamino)-2-(pyrazolo[5,1-b][1,3]thiazol-7-yl)pyrimidin-4-yl]carbonyl}piperidin-4-yl)carbamate] | 6100 nM | 72 nM | 5400 nM
9 | COC(=O)NC1CCN(C(=O)c2cc(NC(C)(C)CO)nc(-c3cnn4ccsc34)n2)CC1 [Example 61, Methyl [1-({6-[(l-hydroxy-2-methylpropan-2-yl)amino]-2-(pyrazolo[5,1-b][1, 3]thiazol-7-yl)pyrimidin-4-yl}carbonyl)piperidin-4-yl]carbamate] | 9400 nM | 540 nM | > 10000 nM
10 | COC(=O)NC1CCN(C(=O)c2cc(OC(C)C(C)(C)C)nc(-c3cnn4ccsc34)n2)CC1 (stereo not drawn) [Example 64, Methyl [1-({6-[(3,3-dimethylbutan-2-yl)oxy]-2-(pyrazolo[5,1-b][1,3]thiazol-7-yl)pyrimidin-4-yl}carbonyl)piperidin-4-yl]carbamate] | > 10000 nM | 260 nM | 3100 nM
11 | C[C@H](Nc1cc(C(=O)N2CCC(NS(C)(=O)=O)CC2)nc(-c2cnn3ccsc23)n1)C1CC1 [Example 66, N-(1-{[6-{[(1S)-1-Cyclopropylethyl]amino}-2-(pyrazolo[5,1-b][1,3]thiazol-7-yl)pyrimidin-4-yl]carbonyl}piperidin-4-yl)methanesulfonamide] | 2400 nM | 110 nM | 620 nM
12 | C[C@H](Nc1cc(C(=O)N2CCC(NS(=O)(=O)C3CC3)CC2)nc(-c2cnn3ccsc23)n1)C1CC1 [Example 67, N-(1-{[6-{[(1S)-1-Cyclopropylethyl]amino}-2-(pyrazolo[5,1-b][1,3]thiazol-7-yl)pyrimidin-4-yl]carbonyl}piperidin-4-yl)cyclopropanesulfonamide] | 1900 nM | 25 nM | 680 nM
13 | CCS(=O)(=O)NC1CCN(C(=O)c2cc(N[C@@H](C)C3CC3)nc(-c3cnn4ccsc34)n2)CC1 [Example 68, N-(1-{[6-{[(1S)-1-Cyclopropylethyl]amino}-2-(pyrazolo[5,1-b][1,3]thiazol-7-yl)pyrimidin-4-yl]carbonyl}piperidin-4-yl)ethanesulfonamide] | 2100 nM | 73 nM | 790 nM
14 | CC(C)C(=O)NC1CCN(C(=O)c2cc(NC(C)(C)C)nc(-c3cnn4ccsc34)n2)CC1 [Example 69, N-(1-{[6-(tert-Butylamino)-2-(pyrazolo[5,1-b][1,3]thiazol-7-yl)pyrimidin-4-yl]carbonyl}piperidin-4-yl)-2-methylpropanamide] | 5700 nM | 810 nM | 3500 nM
15 | CCOC(=O)NC1CCN(C(=O)c2cc(NC(C)(C)C)nc(-c3cnn4ccsc34)n2)CC1 [Example 71, Ethyl (1-{[6-(tert-butylamino)-2-(pyrazolo[5,1-b][1,3]thiazol-7-yl)pyrimidin-4-yl]carbonyl}piperidin-4-yl)carbamate] | 4000 nM | 200 nM | 3700 nM
16 | CC(C)(C)Nc1cc(C(=O)N2CCC(Nc3ccccn3)CC2)nc(-c2cnn3ccsc23)n1 [Example 72, [6-(tert-Butylamino)-2-(pyrazolo[5,1-b][1,3]thiazol-7-yl)pyrimidin-4-yl][4-(pyridin-2-ylamino)piperidin-1-yl]methanone] | 5900 nM | 310 nM | 6100 nM
17 | CC(C)(C)Nc1cc(C(=O)N2CCC(Nc3nccs3)CC2)nc(-c2cnn3ccsc23)n1 [Example 75, [6-(tert-Butylamino)-2-(pyrazolo[5,1-b][1,3]thiazol-7-yl)pyrimidin-4-yl][4-(1,3-thiazol-2-ylamino)piperidin-1-yl]methanone] | 4800 nM | 150 nM | 930 nM
